Test results as given in patent US20170112791A1, “SOLID FORMULATIONS CONTAINING OMEGA-3 AND RESVERATROL” (SIGMA-TAU INDUSTRIE FARMACEUTICHE RIUNITE S.P.A., priority 2014, published 2017).

What was measured:
[1] = Stability after autoxidation induced by radiation (light, 24 hours); type: physicochemical; settings: initial tests (Tables 2 and 3: radiation and high temperature)
Experimental: (§1) The HPLC Analysis was the analysis performed in order to evaluate the stability of the formulations. It was performed using a Column Symmetry C-18 4.6×150 mm, a solution of CH3CN/CH3OH/H2O 45/45/10 as eluent, a flow of 1 ml/min and a Mass spectrometry Detector. The percent amount of EPA and DHA detected are expressed as % by weight. Other stability tests were also performed:
Stability analysis after autoxidation induced by radiation and by high temperature was performed according to the following procedure: • Autoxidation induced by radiation: an amount of 100 mg of the formulation is dispersed in a 5 cm diameter Petri dish, which is placed at a distance of 12 cm from the light source and exposed to light for 24 hours. The light source is constituted by a 13 W lamp with an emission spectrum of from 300 to 640 nm, with peaks at: 440, 490, 540, 590 and 610 nm. The test is carried out at 22° C. at 60% RH • autoxidation induced by high temperature: an amount of 100 mg of the formulation is placed in an amber container and put in a stove at 60° C. for 1 month

[2] = Stability analysis of solid formulations on storage (HPLC recovery of EPA and DHA); type: physicochemical
Experimental: The formulations were divided into 3 groups and left respectively for 3 and 6 months at 25° C. at 60% RH (relative humidity), for 3 and 6 months at 30° C. at 60% RH or for 3 and 6 months at 40° C. at 70% RH.
as §1
n-3 PUFA were added to Neusilin U.S.-2 in small portions, manually mixing up to obtain a homogeneous solid. Stability tests are carried out at 25° C. at 60% RH, 30° C. at 60% RH and 40° C. at 70% RH as described above for 1, 3 and 6 months.

Structure (SMILES) | improvement of stability of EPA and DHA in the initial tests [1] | ability to maintain stable solid formulations containing omega-3 for longer periods ([2]; data of Table 4, 3 months) | antioxidant power with respect of that of α-tocopherol ([2]; from recovery after 3 months at 40° C., 1% antioxidant)
CCCCCCCCCCCCCCCC(=O)OC[C@H](O)[C@H]1OC(=O)C(O)=C1O [Ascorbyl palmitate, ascorbyl palmitate] | able to improve the stability | – | –
COC1=C(OC)C(=O)C(C/C=C(\C)CC/C=C(\C)CC/C=C(\C)CC/C=C(\C)CC/C=C(\C)CC/C=C(\C)CC/C=C(\C)CC/C=C(\C)CC/C=C(\C)CCC=C(C)C)=C(C)C1=O [Coenzyme Q10] | able to improve the stability | – | –
Oc1ccc(/C=C/c2cc(O)cc(O)c2)cc1 [Resveratrol, 3,5,4′-trihydroxy-trans-stilbene] | able to improve the stability | the only natural antioxidant able to maintain stable solid formulations containing omega-3 for longer periods | twice
Cc1c(C)c2c(c(C)c1O)CC[C@@](C)(CCC[C@H](C)CCC[C@H](C)CCCC(C)C)O2 [α-tocopherol] | able to improve the stability | – | –
